The record followed here is ChEMBL document CHEMBL3785073, “Antiviral Indolosesquiterpenoid Xiamycins C-E from a Halophilic Actinomycete” (J Nat Prod, 2016).

The source made the active and inactive calls. The calls are words filed in the database; no cut-off is given here.

Data set [1] can be described thus: Selectivity index, ratio of CC50 for African green monkey Vero cells to EC50 for PEDV infected in African green monkey Vero cells.
Data set [2] is described as follows: Cytotoxicity against African green monkey Vero cells after 48 hrs by MTT assay. The data set is classed as cell-based. The settings on record: chlorocebus sabaeus. Background: Tetrazolium dyes change colour on reduction, which living cells bring about.
For data set [3], the system named is Porcine epidemic diarrhea virus. As to the kind of experiment: Antiviral activity against PEDV infected in African green monkey Vero cells assessed as reduction in virus-induced cytopathic effect after 72 hrs by MTT assay. The data set is classed as functional, cell-based.
The test system is the same in data set [4]. Briefly: Antiviral activity against PEDV infected in African green monkey Vero cells assessed as suppression of GP2 spike protein expression at 5 uM after 24 hrs by Western blot analysis. The data set is classed as functional, cell-based.
For data set [5] the test system is unchanged. Briefly: Antiviral activity against PEDV infected in African green monkey Vero cells assessed as suppression of GP6 neucleocapsid protein expression at 10 uM after 24 hrs by FITC-based immunofluorescence assay. The data set is classed as functional, cell-based.
Data set [6] shares this test system. As to the kind of experiment: Antiviral activity against PEDV infected in African green monkey Vero cells assessed as suppression of GP6 neucleocapsid protein expression after 24 hrs by Western blot analysis. The data set is classed as functional, cell-based. (In general: In western blotting, separated proteins are transferred to a membrane and probed.)
Data set [7] has the same test system. As to the kind of experiment: Antiviral activity against PEDV infected in African green monkey Vero cells assessed as suppression of GP5 neucleocapsid protein mRNA level after 24 hrs by RT-PCR analysis. The format is functional, cell-based.
For data set [8] the test system is unchanged. As to the kind of experiment: Antiviral activity against PEDV infected in African green monkey Vero cells assessed as suppression of GP2 spike protein mRNA level after 24 hrs by RT-PCR analysis. The data set is classed as functional, cell-based.
The test system is the same in data set [9]. Briefly: Antiviral activity against PEDV infected in African green monkey Vero cells assessed as suppression of GP2 spike protein expression after 24 hrs by Western blot analysis. The data set is classed as functional, cell-based.
The test system is the same in data set [10]. Briefly: Antiviral activity against PEDV infected in African green monkey Vero cells assessed as suppression of GP6 neucleocapsid protein expression after 24 hrs by FITC-based immunofluorescence assay. The data set is classed as functional, cell-based.
For data set [11] the test system is unchanged. As to the kind of experiment: Antiviral activity against PEDV infected in African green monkey Vero cells assessed as suppression of GP6 neucleocapsid protein mRNA level after 24 hrs by RT-PCR analysis. The data set is classed as functional, cell-based.

Turning to `C[C@@]1(C(=O)O)[C@@H](O)CC[C@]2(C)c3cc4c(cc3[C@@H](O)C[C@@H]12)[nH]c1ccccc14`, in data set [1], the “Ratio CC50/EC50” value was found to be 6.75. Also, the cytotoxic concentration (CC50) (as a rule, the concentration at which the toxic effect on the cells reaches its halfway point) at 48 h in [2] turned out to be 76.9 µM. In data set [3], the EC50 (as a rule, the concentration giving half of the maximal effect) came out at 11.5 µM.
Regarding `O=c1cnn([C@@H]2O[C@H](CO)[C@@H](O)[C@H]2O)c(=O)[nH]1` [6-AZAURIDINE], the “Ratio CC50/EC50” value in data set [1] was found to be 12.7. The result in data set [4] and in data set [5] was Active. Moreover, half-maximal cytotoxicity in data set [2] (CC50 at 48 h) was put at 57.3 µM. The EC50 in [3] is 4.48 µM.
Take `C[C@@]1(C(=O)O)[C@@H](O)CC[C@]2(C)c3cc4c([nH]c5ccccc54)c(Cl)c3CC[C@@H]12`: the “Ratio CC50/EC50” value in data set [1] turned out to be 12.89. For the same compound, the midpoint of cytotoxicity in data set [2], the CC50 at 48 h, lay at 162 µM. For the same compound, in data set [3], the half-maximal effective concentration (EC50) amounted to 12.8 µM.
In the case of `COC(=O)[C@]1(C)[C@@H](O)CC[C@]2(C)c3cc4c(cc3CC[C@@H]12)[nH]c1ccccc14`, the “Ratio CC50/EC50” value in data set [1] came to 18.09. This compound also yielded a CC50 at 48 h in data set [2] of 103 µM. Also, the concentration for a half-maximal effect (EC50) in data set [3] amounted to 5.69 µM.
`COC(=O)[C@]1(C)[C@@H](O)CC[C@]2(C)c3cc4c(cc3[C@@H](O)C[C@@H]12)[nH]c1ccccc14`: the Activity result in data set [6], in data set [7], in data set [8], in data set [9], in [10] and in data set [4] was “Dose-dependent effect” throughout. In data set [11], the Activity result is “Dose-dependent effect”. For the same compound, in data set [1], the “Ratio CC50/EC50” value is listed as 60.31. The same compound had a CC50 at 48 h in [2] of 56 µM. The EC50 in [3] stood at 0.93 µM.
Regarding `C[C@@]1(C(=O)O)[C@@H](O)CC[C@]2(C)c3cc4c(cc3CC[C@@H]12)[nH]c1ccccc14` [XIAMYCIN], the “Ratio CC50/EC50” value in data set [1] worked out at 7. In data set [2], this compound came in with a CC50 at 48 h of 138 µM. Also, in [3], the EC50 was found to be 20.1 µM.
With `COC(=O)[C@]1(C)[C@@H](O)CC[C@]2(C)c3cc4c(cc3C(=O)C[C@@H]12)[nH]c1ccccc14`, the outcome in data set [8] and in [4] was Active. In addition, the “Ratio CC50/EC50” value in data set [1] is on record as 34.63. Moreover, half-maximal cytotoxicity in data set [2] (CC50 at 48 h) was put at 98.7 µM. In addition, the 50% effective concentration (EC50) in data set [3] was 2.89 µM.
